# Reference: PubChem BioAssay AID1918930 (Molecular Pharmacology Branch, DTP, NCI, 2023)
# Where “and” joins values, the source holds several entries; their conditions need not be identical. Equal values may be shown once.
# System: 233499-124-R-J3-PDC complex spheroid viability, % test/control
# Assay: Anticancer human tumor 233499-124-R-J3-PDC patient-derived colon adenocarcinoma cell line growth inhibition
# Details: for IC50: curve of first compound; for viability, T/C: stronger effect = lower value
# Procedure, shortened: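 Drug combinations with the LSD1 inhibitor iadademstat tested on tumor cells co-cultured as spheroids with endothelial cells and mesenchymal stem cells. Concentrations descended in half-log increments from clinical Cmax or 10 microM.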
# [1] = second compound 0.1 µM, first compound 0.00949 µM
# [2] = second compound 0.1 µM, first compound 0.03 µM
# [3] = second compound 0.1 µM, first compound 0.0949 µM
# [4] = second compound 0.1 µM, first compound 0.3 µM
# [5] = second compound 0.316 µM, first compound 0.00949 µM
# [6] = second compound 0.316 µM, first compound 0.03 µM
# [7] = second compound 0.316 µM, first compound 0.0949 µM
# [8] = second compound 0.316 µM, first compound 0.3 µM
# [9] = second compound 1 µM, first compound 0.00949 µM
# [10] = second compound 1 µM, first compound 0.03 µM
# [11] = second compound 1 µM, first compound 0.0949 µM
# [12] = second compound 1 µM, first compound 0.3 µM
# [13] = second compound 3.16 µM, first compound 0.00949 µM
# [14] = second compound 3.16 µM, first compound 0.03 µM
# [15] = second compound 3.16 µM, first compound 0.0949 µM
# [16] = second compound 3.16 µM, first compound 0.3 µM
# [17] = second compound 10 µM, first compound 0.00949 µM
# [18] = second compound 10 µM, first compound 0.03 µM
# [19] = second compound 10 µM, first compound 0.0949 µM
# [20] = second compound 10 µM, first compound 0.3 µM
# [21] = second compound 0.1 µM, first compound 0.949 µM
# [22] = second compound 0.1 µM, first compound 3 µM
# [23] = second compound 0.316 µM, first compound 0.949 µM
# [24] = second compound 0.316 µM, first compound 3 µM
# [25] = second compound 1 µM, first compound 0.949 µM
# [26] = second compound 1 µM, first compound 3 µM
# [27] = second compound 3.16 µM, first compound 0.949 µM
# [28] = second compound 3.16 µM, first compound 3 µM
# [29] = second compound 10 µM, first compound 0.949 µM
# [30] = second compound 10 µM, first compound 3 µM
# [31] = second compound 0.1 µM, first compound 0.0316 µM
# [32] = second compound 0.1 µM, first compound 0.1 µM
# [33] = second compound 0.1 µM, first compound 0.316 µM
# [34] = second compound 0.1 µM, first compound 1 µM
# [35] = second compound 0.1 µM, first compound 3.16 µM
# [36] = second compound 0.1 µM, first compound 10 µM
# [37] = second compound 0.316 µM, first compound 0.0316 µM
# [38] = second compound 0.316 µM, first compound 0.1 µM
# [39] = second compound 0.316 µM, first compound 0.316 µM
# [40] = second compound 0.316 µM, first compound 1 µM
# [41] = second compound 0.316 µM, first compound 3.16 µM
# [42] = second compound 0.316 µM, first compound 10 µM
# [43] = second compound 1 µM, first compound 0.0316 µM
# [44] = second compound 1 µM, first compound 0.1 µM
# [45] = second compound 1 µM, first compound 0.316 µM
# [46] = second compound 1 µM, first compound 1 µM
# [47] = second compound 1 µM, first compound 3.16 µM
# [48] = second compound 1 µM, first compound 10 µM
# [49] = second compound 3.16 µM, first compound 0.0316 µM
# [50] = second compound 3.16 µM, first compound 0.1 µM
# [51] = second compound 3.16 µM, first compound 0.316 µM
# [52] = second compound 3.16 µM, first compound 1 µM
# [53] = second compound 3.16 µM, first compound 3.16 µM
# [54] = second compound 3.16 µM, first compound 10 µM
# [55] = second compound 10 µM, first compound 0.0316 µM
# [56] = second compound 10 µM, first compound 0.1 µM
# [57] = second compound 10 µM, first compound 0.316 µM
# [58] = second compound 10 µM, first compound 1 µM
# [59] = second compound 10 µM, first compound 3.16 µM
# [60] = second compound 10 µM, first compound 10 µM
# 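Further: spheroids exposed to agents for one week before readout.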
smiles,measurement,setting,value
Nc1ccn(C2OC(CO)C(O)C2(F)F)c(=O)n1 (stereo unspecified) + NC1CCC(NC2CC2c2ccccc2)CC1,IC50,second compound 0.1 µM,2.48 nM
same,IC50,second compound 0.316 µM,4.47 nM
same,IC50,second compound 1 µM,6.13 nM
same,IC50,second compound 3.16 µM,1.07 nM
same,IC50,second compound 10 µM,< 0.949 nM
same,"viability, T/C","second compound 0.1 µM, first compound 0.000949 µM",100%
same,"viability, T/C","second compound 0.1 µM, first compound 0.003 µM",35.6%
same,"viability, T/C",[1],43.9%
same,"viability, T/C",[2],21.9%
same,"viability, T/C",[3],30.3%
same,"viability, T/C",[4],21.1%
same,"viability, T/C","second compound 0.316 µM, first compound 0.000949 µM",99.4%
same,"viability, T/C","second compound 0.316 µM, first compound 0.003 µM",58.8%
same,"viability, T/C",[5],22.2%
same,"viability, T/C",[6],32.3%
same,"viability, T/C",[7],37.9%
same,"viability, T/C",[8],41.5%
same,"viability, T/C","second compound 1 µM, first compound 0.000949 µM",88.7%
same,"viability, T/C","second compound 1 µM, first compound 0.003 µM",62.1%
same,"viability, T/C",[9],44.4%
same,"viability, T/C",[10],31.1%
same,"viability, T/C",[11],26.6%
same,"viability, T/C",[12],35.1%
same,"viability, T/C","second compound 3.16 µM, first compound 0.000949 µM",51.4%
same,"viability, T/C","second compound 3.16 µM, first compound 0.003 µM",40.9%
same,"viability, T/C",[13],36.9%
same,"viability, T/C",[14],47.2%
same,"viability, T/C",[15],18.9%
same,"viability, T/C",[16],39.5%
same,"viability, T/C","second compound 10 µM, first compound 0.000949 µM",59.2%
same,"viability, T/C","second compound 10 µM, first compound 0.003 µM",29.7%
same,"viability, T/C",[17],29.2%
same,"viability, T/C",[18],34.9%
same,"viability, T/C",[19],27.3%
same,"viability, T/C",[20],37%
Nc1ccccc1NC(=O)c1ccc(CNC(=O)OCc2cccnc2)cc1 + NC1CCC(NC2CC2c2ccccc2)CC1,IC50,second compound 0.1 µM,476 nM
same,IC50,second compound 0.316 µM,579 nM
same,IC50,second compound 1 µM,523 nM
same,IC50,second compound 3.16 µM,525 nM
same,IC50,second compound 10 µM,463 nM
same,"viability, T/C",[1],112%
same,"viability, T/C",[2],93.4%
same,"viability, T/C",[3],106%
same,"viability, T/C",[4],65.8%
same,"viability, T/C",[21],24%
same,"viability, T/C",[22],2.31%
same,"viability, T/C",[5],92.2%
same,"viability, T/C",[6],91.8%
same,"viability, T/C",[7],101%
same,"viability, T/C",[8],91.2%
same,"viability, T/C",[23],19.1%
same,"viability, T/C",[24],5.83%
same,"viability, T/C",[9],81.9%
same,"viability, T/C",[10],99.9%
same,"viability, T/C",[11],92%
same,"viability, T/C",[12],88.4%
same,"viability, T/C",[25],8.94%
same,"viability, T/C",[26],4.76%
same,"viability, T/C",[13],78.8%
same,"viability, T/C",[14],89.5%
same,"viability, T/C",[15],76.7%
same,"viability, T/C",[16],82.1%
same,"viability, T/C",[27],16.5%
same,"viability, T/C",[28],4.56%
same,"viability, T/C",[17],74.8%
same,"viability, T/C",[18],92.3%
same,"viability, T/C",[19],75.2%
same,"viability, T/C",[20],73.4%
same,"viability, T/C",[29],11.5%
same,"viability, T/C",[30],3.56%
CC1(C)CCC(CN2CCN(c3ccc(C(=O)NS(=O)(=O)c4ccc(NCC5CCOCC5)c([N+](=O)[O-])c4)c(Oc4cnc5[nH]ccc5c4)c3)CC2)=C(c2ccc(Cl)cc2)C1 + NC1CC1c1ccc(-c2cccc(O)c2)cc1,IC50,second compound 0.1 µM,2680 nM
same,IC50,second compound 0.316 µM,2450 nM
same,IC50,second compound 1 µM,3180 nM
same,IC50,second compound 3.16 µM,2810 nM
same,IC50,second compound 10 µM,2270 nM
same,"viability, T/C",[31],84.1%
same,"viability, T/C",[32],109%
same,"viability, T/C",[33],113%
same,"viability, T/C",[34],107%
same,"viability, T/C",[35],41.1%
same,"viability, T/C",[36],0.86%
same,"viability, T/C",[37],114%
same,"viability, T/C",[38],102%
same,"viability, T/C",[39],100%
same,"viability, T/C",[40],111%
same,"viability, T/C",[41],33.9%
same,"viability, T/C",[42],0.83%
same,"viability, T/C",[43],88.7%
same,"viability, T/C",[44],92%
same,"viability, T/C",[45],97.8%
same,"viability, T/C",[46],102%
same,"viability, T/C",[47],50.2%
same,"viability, T/C",[48],0.7%
same,"viability, T/C",[49],100%
same,"viability, T/C",[50],97.1%
same,"viability, T/C",[51],91.4%
same,"viability, T/C",[52],99.3%
same,"viability, T/C",[53],44.6%
same,"viability, T/C",[54],0.57%
same,"viability, T/C",[55],76.7%
same,"viability, T/C",[56],83.9%
same,"viability, T/C",[57],72.9%
same,"viability, T/C",[58],81.1%
same,"viability, T/C",[59],38.5%
same,"viability, T/C",[60],0.43%
COc1ccc([C@@H](O)c2cc(-c3ncnc4cc(N5CCOCC5)ccc34)c(F)cc2Cl)nn1 + NC1CC1c1ccc(-c2cccc(O)c2)cc1,IC50,second compound 0.1 µM,5190 nM
same,IC50,second compound 0.316 µM,6670 nM
same,IC50,second compound 1 µM,5490 nM
same,IC50,second compound 3.16 µM,3620 nM
same,IC50,second compound 10 µM,1710 nM
same,"viability, T/C",[31],97.3%
same,"viability, T/C",[32],93.4%
same,"viability, T/C",[33],95.7%
same,"viability, T/C",[34],71.5%
same,"viability, T/C",[35],63%
same,"viability, T/C",[36],36.3%
same,"viability, T/C",[37],93.3%
same,"viability, T/C",[38],98.3%
same,"viability, T/C",[39],95.5%
same,"viability, T/C",[40],78.6%
same,"viability, T/C",[41],78.5%
same,"viability, T/C",[42],36.1%
same,"viability, T/C",[43],91.4%
same,"viability, T/C",[44],80.4%
same,"viability, T/C",[45],79.1%
same,"viability, T/C",[46],62%
same,"viability, T/C",[47],63.1%
same,"viability, T/C",[48],40.1%
same,"viability, T/C",[49],92.1%
same,"viability, T/C",[50],95.8%
same,"viability, T/C",[51],75.9%
same,"viability, T/C",[52],67.3%
same,"viability, T/C",[53],57.7%
same,"viability, T/C",[54],26.9%
same,"viability, T/C",[55],69.5%
same,"viability, T/C",[56],80.2%
same,"viability, T/C",[57],57.7%
same,"viability, T/C",[58],49.7%
same,"viability, T/C",[59],51.2%
same,"viability, T/C",[60],21.5%
Nc1ccn(C2OC(CO)C(O)C2(F)F)c(=O)n1 (stereo unspecified),"viability, T/C",compound 0.000949 µM,69.7% and 82.2%
same,"viability, T/C",compound 0.003 µM,36.4% and 84.6%
same,"viability, T/C",compound 0.00949 µM,40.4% and 80.5%
same,"viability, T/C",compound 0.03 µM,26.6% and 68.5%
same,"viability, T/C",compound 0.0949 µM,31% and 48.6%
same,"viability, T/C",compound 0.3 µM,54.3% and 46.2%
NS(=O)(=O)OCC1CC(n2ccc3c(NC4CCc5ccccc54)ncnc32)CC1O (stereo unspecified) + NC1CCC(NC2CC2c2ccccc2)CC1,IC50,second compound 0.1 µM,108 nM
same,IC50,second compound 0.316 µM,88.8 nM
same,IC50,second compound 1 µM,47.5 nM
same,IC50,second compound 3.16 µM,49.6 nM
same,IC50,second compound 10 µM,54.1 nM
same,"viability, T/C",[1],106%
same,"viability, T/C",[2],95.7%
same,"viability, T/C",[3],55.9%
same,"viability, T/C",[4],9.71%
same,"viability, T/C",[21],11.5%
same,"viability, T/C",[22],9.68%
same,"viability, T/C",[5],90.8%
same,"viability, T/C",[6],70%
same,"viability, T/C",[7],53.4%
same,"viability, T/C",[8],9.15%
same,"viability, T/C",[23],6.44%
same,"viability, T/C",[24],7.69%
same,"viability, T/C",[9],90.7%
same,"viability, T/C",[10],55.9%
same,"viability, T/C",[11],43.2%
same,"viability, T/C",[12],12%
same,"viability, T/C",[25],11.3%
same,"viability, T/C",[26],6.96%
same,"viability, T/C",[13],102%
same,"viability, T/C",[14],62.9%
same,"viability, T/C",[15],34.5%
same,"viability, T/C",[16],10.7%
same,"viability, T/C",[27],7.04%
same,"viability, T/C",[28],1.91%
same,"viability, T/C",[17],89.9%
same,"viability, T/C",[18],66.2%
same,"viability, T/C",[19],33.4%
same,"viability, T/C",[20],19%
same,"viability, T/C",[29],5.43%
same,"viability, T/C",[30],3.7%
